Source: patent US4325960A, “6-Amidinopenicillanic acid derivatives including the radical of a β-lactamase inhibitor” (Leo Pharmaceutical Products Ltd. A/S (Lovens Kemiske Fabrik, priority 1979, dated 1982)
Where “and” joins values, the source holds several entries; their conditions need not be identical. Equal entries are not always repeated. Structures can show the parent of a compound that is named as a salt.

How the values were obtained:
[1] = Urinary excretion in 0 to 6 hours of penicillanic acid 1,1-dioxide in fasting volunteers following oral administration; format: in vivo, human
Procedure: Urinary excretion in 0 to 6 hours of penicillanic
acid 1,1-dioxide in fasting volunteers following
A. 60 mg of potassium penicillanate 1,1-dioxide
(corresponding to 52 mg of penicillanic acid
1,1-dioxide) in aqueous solution
B. 128 mg of VD-1825 hydrochloride (corresponding
to 49.0 mg of penicillanic acid 1,1-dioxide) in […]

[2] = system: β-lactamases; conditions: cited from earlier work
[3] = in vivo; cited from earlier work
[4] = human, in vivo, po
Procedure: Serum concentrations and urinary excretion of mecillinam in fasting
following oral administration of
B. 128 mg of VD-1825^x hydrochloride (corresponding to 100 mg of
pivmecillinam hydrochloride) in aqueous solution

SMILES: CC1(C)[C@H](C(=O)[O-])N2C(=O)C[C@H]2S1(=O)=O.[K+] [potassium penicillanate 1,1-dioxide]
- Urinary excretion of penicillanic acid 1,1-dioxide ([1]; 0 to 6 hours, individual subject, 60 mg potassium penicillanate 1,1-dioxide oral, aqueous solution, fasting, 360 min): 2.4 % of dose and 3.2 % of dose and 7.7 % of dose and 5.2 % of dose and 2.9 % of dose
- Urinary excretion of penicillanic acid 1,1-dioxide, mean ([1]; 0 to 6 hours, mean, 60 mg potassium penicillanate 1,1-dioxide oral, aqueous solution, fasting): 4.3 % of dose
- dose excreted at 6 h ([1]; human, in vivo, po, 60 mg, 0 to 6 hours, mean, 60 mg potassium penicillanate 1,1-dioxide oral, aqueous solution, fasting): 4.3%

SMILES: CC1(C)[C@H](C(=O)O)N2C(=O)C[C@H]2S1(=O)=O [penicillanic acid 1,1-dioxide]
- Absorption from the gastro-intestinal tract, cf. Table II ([1]; oral): absorbed poorly or irregularly from the gastro-intestinal tract
- β-lactamase inhibition [2]: powerful inhibitors of a wide range of β-lactamases

SMILES: CC(C)(C)C(=O)OCOC(=O)[C@@H]1N2C(=O)C[C@H]2S(=O)(=O)C1(C)C
- Absorption from the gastro-intestinal tract on oral administration [3]: absorbed much more slowly

SMILES: O=C(O)[C@H]1/C(=C/CO)O[C@@H]2CC(=O)N21 [clavulanic acid]
- β-lactamase inhibition [2]: β-lactamase inhibitors

SMILES: CC1(C)[C@H](C(=O)O)N2C(=O)[C@H](Cl)[C@H]2S1(=O)=O [6α-chloropenicillanic acid 1,1-dioxide]
- β-lactamase inhibition [2]: powerful inhibitors of a wide range of β-lactamases

SMILES: CC1(C)S[C@@H]2[C@H](N=CN3CCCCCC3)C(=O)N2[C@H]1C(=O)OCOC(=O)[C@@H]1N2C(=O)C[C@H]2S(=O)(=O)C1(C)C [VD-1825, 1,1-Dioxopenicillanoyloxymethyl 6-[(hexahydro-1H-azepin-1-yl)-methyleneamino]penicillanate hydrochloride]
- Urinary recovery of mecillinam compared with pivmecillinam [4]: comparable to that following administration of pivmecillinam
- Absorption concluded from urinary recovery of penicillanic acid 1,1-dioxide ([1]; human, in vivo, po): efficient absorption

SMILES: CC1(C)S[C@@H]2[C@H](N=CN3CCCCCC3)C(=O)N2[C@H]1C(=O)O [mecillinam, 6-[(hexahydro-1H-azepin-1-yl)-methyleneamino]penicillanic acid]
- Absorption from the gastro-intestinal tract on oral administration [3]: incompletely absorbed, when given orally

SMILES: CC1(C)[C@H](C(=O)O)N2C(=O)[C@@H](NC(=O)c3nc4ccccc4nc3C(=O)O)[C@H]2S1(=O)=O [quinacillin sulphone]
- β-lactamase inhibition [2]: powerful inhibitors of a wide range of β-lactamases

SMILES: COc1cccc(OC)c1C(=O)N[C@@H]1C(=O)N2[C@@H](C(=O)O)C(C)(C)S(=O)(=O)[C@H]12 [methicillin sulphone, 1,1-dioxo-6β-(2,6-dimethoxybenzamido)penicillanic acid]
- β-lactamase inhibition [2]: powerful inhibitors of a wide range of β-lactamases
